# Experimental data: a melting point compilation (Tetko et al.; mined from patent text by program, amines drawn as free bases though some values may be those of a salt)
row,Compound,melting point [°C]
1,CC(C)(C)OC(=O)N[C@@H](Cc1ccc(NC(=O)OCC2c3ccccc3-c3ccccc32)cc1)C(=O)OCc1ccccc1,186 to 187
2,N#Cc1ccc2c(c1)S(=O)(=O)c1ccccc1C2=O,282 to 283
3,COCc1cccc(Cl)c1NC(=O)CC1c2ccccc2Oc2ccccc21,184 to 185
4,CCCC(=O)C(=O)C(CC1CCCCC1)NC(=O)C(CC(C)C)NC(=O)C(Cc1ccccc1)NC(=O)C1CCCC1 (stereo unspecified),152 to 161
5,CC(=O)Nc1ccc(OCCN2CC=C(c3ccc(F)cc3)CC2)cc1,96 to 98
6,O=C1C=CC(O)(c2ccccn2)C=C1,116 to 117
7,CC(=O)Nc1ccc(Nc2c(CC3CC4C=CC3C4)cc(C(=O)O)cc2S(=O)(=O)NC(C)=O)cc1 (stereo unspecified),270
8,COc1cc(N)c(Cl)cc1-c1nn(C2CCN(CC3CCCCC3)CC2)c(=O)o1,186 to 187
9,CC(=O)NC[C@H]1CN(c2ccc(C3CCN(C=O)CC3)c(F)c2)C(=O)O1,186 to 187
10,CCCCCCCCCCCCCCOc1ccc(COC(=O)NCc2ccccn2)cc1,67 to 68
11,CN1CCC(=C2c3ccc(F)cc3Sc3ccc(F)cc32)CC1,120 to 123
12,CCc1cn2ccccc2c1S(=O)(=O)c1ccc(OS(=O)(=O)c2ccc(C)cc2)cc1,190
13,COc1cc(N)c2c(c1)C(=O)CCN2,107 to 110
14,CC12CCC(=O)C=C1CCC1C2CCC2(C)C(=CCC(=O)O)CCC12 (stereo unspecified),266 to 270
15,O=C(c1cncc(Br)c1)N1CCC(=C2c3ccc(Cl)cc3CCc3cccnc32)CC1,87.5 to 96.4
16,NC(=O)Oc1ccccc1-c1nc2cc(F)c(OCc3c(Cl)cccc3Cl)cc2s1,245 to 250
17,CC(C)CN(C(=O)N(CCCl)N=O)C1O[C@H](CO)[C@H](O)[C@H](O)[C@H]1O (stereo partly specified),48 to 53
18,Cc1cc(-c2ccc(OCc3ccncc3)cc2)cc2ccc(=O)[nH]c12,270 to 274
19,O=C(Oc1ccccc1)N1CCC2(CC1)SC(c1ccc(Cl)cc1)c1ccccc12 (stereo unspecified),211 to 212
20,O=C1NCCN1S(=O)(=O)N1CCCCC1,201
21,CCCCCCCCCCCCCCOc1cc(OCCCOc2ccc(OCc3ccccc3)cc2)cc(C(=O)OC)c1,69 to 70
22,NC1=NC(=O)N(CC2CC2)CC1Br (stereo unspecified),139 to 143

row,Compound,melting point [°C]
1,CON(c1ccc([N+](=O)[O-])cc1[N+](=O)[O-])S(=O)(=O)c1ccc(C)cc1,146 to 148
2,COC(=O)NC=Cc1ccc(O)cc1,169 to 170
3,COc1ccc(Oc2ccccc2Cl)cc1C=O,65 to 66
4,CN(C=O)c1ccccc1C(=O)COC(=O)c1ccccc1,100 to 102
5,O=C(c1cc(Cl)ccc1Nc1ccncc1)N1CCCCC1,158 to 159
6,O=C(Nc1ccc(-c2cnc(-c3ccc(NC(=O)C45CC6CC(CC(C6)C4)C5)cc3)[nH]2)cc1)c1cccnc1,251 to 252
7,COC(=O)OC1CCC2C3CCC4=CC(=O)CCC4(C)C3CCC12C (stereo unspecified),140 to 141
8,O=C(Nc1ccc(Oc2ccccc2F)nc1)N1CCc2ccccc2CC1,170 to 172
9,COc1c(C(O)CNC(C)(C)Cc2ccccc2)ccc(O)c1O (stereo unspecified),149 to 150
10,Nc1ccc(CN2C(=O)[C@H]3CCC[C@H]3Nc3ccccc32)cc1 (relative stereo),149 to 150
11,Nc1c(Oc2ccc(F)c(C(F)(F)F)c2)ncnc1Oc1ccc(F)c(C(F)(F)F)c1,104 to 105
12,COc1ccc(CN2C(CN3CCOCC3)=Cc3ccsc3S2(=O)=O)cc1,112 to 114
13,O=C1c2ccccc2S(=O)(=O)N1CCCCN1CCC2(CC1)Cc1ccccc1O2,98 to 100
14,ClCc1cn2cc(Br)ccc2n1,125 to 126
15,ON=Cc1cc(F)ccc1Cl,133 to 134
16,S=C=Nc1ccc(-c2nc(-c3cccs3)no2)cc1,161 to 162
17,CC(=O)N(C#N)C1(c2ccc(OCc3ccc4ccccc4n3)cc2)CCCCC1,90
18,O=[N+]([O-])c1cc(F)cc2c1OCC2,113 to 114
19,COc1ccc(N)c2c1oc1ccccc12,167 to 169
20,Nc1ccccc1C(=O)NCCCN1CCC(C(=O)c2ccc(F)cc2)CC1,113
21,Cc1sc2c(c1C)C(=O)NS2(=O)=O,187

# Further lines, results first:
row,melting point [°C],Compound
1,140 to 142,CC/C(=C(\c1ccc(/C=C/C(=O)O)cc1)c1ccc(OC(=O)OC)cc1)c1ccccc1
2,128 to 129,CCCn1nc2c(-c3ccccc3)cccc2c1-c1ccc(OC)cc1
3,95 to 96,CCOC(=O)Cc1csc(Sc2ccc(OCc3nc(-c4ccccc4)oc3C)cc2)n1
4,215 to 217,CCC1(C)Cc2cc(O)c(Cl)c(Cl)c2C1=O (stereo unspecified)
5,57 to 73,CON1C(=O)CC2(CCN(C(=O)C3=CN(Cc4ccccc4)C=CC3)CC2)C1=O
6,117 to 119,COc1cc(C(=O)N(C(C)C)C2CCCCC2)ccc1Cn1c(CO)nc2ncccc21
7,259 to 261,CC1(C)Oc2ccc(S(=O)(=O)C(F)(F)F)cc2[C@@H](N2Cc3c(F)cccc3C2=O)[C@@H]1O (relative stereo)
8,291 to 296,CN(C)C=Nc1ccc2nnc(-c3ccc([N+](=O)[O-])o3)n2n1
9,172,CNC(=O)C(NC(=O)c1ccc(F)cc1C(F)(F)F)C(O)CSc1cccc(F)c1 (stereo unspecified)
10,> 300,CN(C)c1ccc(-c2c(O)c3ccc(Cl)cc3[nH]c2=O)cc1
11,77 to 78,Cn1cc(C=O)c(-c2ccoc2)n1
12,85 to 87,Fc1ccc(-n2nc(N3CCNCC3)c3ccccc32)cc1
13,142 to 143,CC1(C)CCC(C)(C)c2cc(CC(=O)Oc3ccc(C(=O)O)cc3)ccc21
14,328 to 330,CC(C)Cn1cc2c(O)nc(O)nc2n1
15,132 to 133,COC(=O)Cc1n[nH]c(C)c1[N+](=O)[O-]
16,216 to 218,CCOC(=O)c1cnc(Nc2ccc(-n3cnc(C)c3)c(OC)c2)nc1-c1ccc(Cl)cc1
17,249 to 251,Cc1ccc2c(c1)Cc1c(C(=O)C(C#N)C(=O)Nc3ccccc3)nn(-c3ccccc3)c1-2 (stereo unspecified)
18,180 to 181,O=C(CSCCCCCCO)c1ccc2[nH]c(=O)[nH]c2c1
19,278 to 279,CC(C)(C(=O)c1ccccc1OCC(=O)O)N1CCN(c2ccncc2)CC1
20,205,CN1C(=O)CC(c2ccc(CO)cc2)C1C(O)c1ccc(-c2ccccc2)s1 (stereo unspecified)

row,melting point [°C],Compound
1,195 to 196,CC1(C)Oc2cc3nonc3cc2C(N2CCC(O)C2=O)C1O (stereo unspecified)
2,129,Cc1cc2c(cc1Br)OCC(C)(C)CC2(O)c1ccccn1 (stereo unspecified)
3,227 to 230,COc1cc2c(Nc3ccc(Cl)cc3F)ncnc2cc1OCCS(C)(=O)=O
4,267 to 269,COC(=O)c1ccc(-c2nn(-c3ccc(C(N)=O)cc3)c3ccccc23)cc1
5,156 to 158,Cn1ccc(S(N)(=O)=O)n1
6,157 to 158,O=C(O)CCC(c1cc(F)ccc1F)S(=O)(=O)c1ccc(Cl)cc1 (stereo unspecified)
7,149 to 152,Cc1cc(=O)oc2nn(Cc3ccc(Cl)cc3)c(C)c12
8,78 to 79,COC(=O)Cc1ccccc1OCc1ccc(OCCc2nc(-c3ccccc3)oc2C)nc1
9,221 to 227,CSc1nc(-c2ccccn2)n(-c2ccc(F)cc2)c(=O)c1C#N
10,248,CC1(C)CC(O)C(C)(C)c2cc(/C=C/c3ccc(C(=O)O)cc3)c(Cn3cccn3)cc21 (stereo unspecified)
11,104 to 106,Cn1nnnc1C(/C=C/[C@@H]1C[C@@H](O)CC(=O)O1)=C(c1ccc(F)cc1)c1ccc(F)cc1
12,173 to 175,CCn1ncc2c3onc(-c4ccc(C)cc4)c3cnc21
13,182 to 186,COc1cc2c(Nc3ccc(Cl)cc3F)ncnc2cc1OCCSc1ccncc1
14,197 to 200,O=C1Nc2cccnc2N(C(=O)CN2CCN(CCO)CC2)c2ccccc21
15,122 to 123,CC(C)Oc1nn(CCO)cc1C(=O)NCc1ccc(Cl)cc1Cl
16,138 to 140,OCc1cccc2c(Cl)c3ccccc3cc12
17,185,CCOC(=O)c1nc2ccc(C(C(C)C)n3ccnc3)cc2[nH]c1=O (stereo unspecified)
18,85 to 89,CC(C)OC(=O)c1cc(-n2c(=O)c(F)c(CF)n(C)c2=O)c(F)cc1Cl
19,226 to 227,NC(=O)C1CCc2[nH]c3ccc(F)c(Cl)c3c2C1 (stereo unspecified)
20,168,CC#CCOc1ccc(S(=O)C(C(=O)NO)c2ccccc2OC)cc1 (stereo unspecified)

row,melting point [°C],Compound
1,86 to 87.5,OC(COCCCl)c1ccc2cc(OCc3ccccc3)ccc2c1 (stereo unspecified)
2,121 to 124,CC(O)COc1cccc([N+](=O)[O-])c1C#N (stereo unspecified)
3,68 to 70,CCC(C#N)(Cn1cncn1)c1ccc(Br)cc1 (stereo unspecified)
4,160 to 161,CC(C)Cc1nc2c(N)nc3c(c2n1CC(C)C)CCCC3
5,208 to 210,CC(C)c1ccc(S(=O)(=O)Nc2nc(-c3cccc([N+](=O)[O-])c3)cs2)nc1
6,275 to 276,Cc1nn(C)c2ncc(C(=O)O)c(NCS(=O)(=O)c3ccc(F)cc3)c12
7,73 to 75,COCC(=O)O[C@@H]1[C@@H](c2ccccc2)Nc2c(ccn3c(C)c(C)nc23)[C@@H]1OC
8,198 to 200,CN1CCN(c2cccc3ccc(Nc4ncccc4N)cc23)CC1
9,149 to 151,CC1ON=C(c2ccc(F)cc2)C1CN(O)C(N)=O (stereo unspecified)
10,204 to 205,CC(C)n1nc(-c2sc(C(=O)NCc3ccccn3)nc2-c2ccc(F)cc2)ccc1=O
11,89 to 91,COC(=O)CCn1c(=O)n2cc(C)cc2c2ccccc21
12,164 to 167,Cc1cc(Oc2ncc(C(F)(F)F)cc2Cl)nn1C(=O)Nc1ccc(C(F)(F)F)cc1
13,70 to 72.5,COc1ccc(C(O)CSCc2ccncc2)cc1 (stereo unspecified)
14,134 to 138,CCNC(=S)NC1CCC(=O)c2ccccc21 (stereo unspecified)
15,70,OCCSc1ccc(O)cc1
16,133 to 135,CCC(CC)n1cc(Br)nc(N2CCc3cc(OC)cc(Br)c32)c1=O
17,218 to 220,Cc1csc(C(=O)c2[nH]c3ccc(Cl)cc3c2CC(=O)O)n1
18,204 to 206,CCC(=O)c1ccc(=O)[nH]c1C=CN(C)C
